Test results reported in PMC7055300, “Theileria parasites subvert E2F signaling to stimulate leukocyte proliferation” (Scientific Reports, 2020).

Legend:
Format in all cases: cell-based, bovine
[1] = test system: E2F activity in T. parva-infected B cells; assay: E2F-luc reporter assay, T. parva-infected B cells; conditions: penetrating peptide
Description: (§1) Since no system for genetic manipulation is available yet for intracellular Theileria, we instead incubated T. parva- and T. annulata-infected bovine leukocytes (transfected with a luciferase reporter regulated from an E2F promoter) with synthesized peptides containing the RB-binding LXCXE motif, or a mutated LXNXE negative control, linked to a cell-penetrating peptide. If the LXCXE-containing peptide can regulate E2F activity in a sequence-specific manner, we would expect it to increase E2F activity, and that this effect would be reduced or abrogated in the mutated LXNXE peptide-treated group.
(§2) TpMD409.B2 cells were co-transfected with 20 μg (E2F-luc, mE2F-luc), or 10 μg (cyclin E-luc) reporter construct, 20 μg of expression vector and 5 μg of pCMV-lacZ, where indicated. Luciferase and β-galactosidase activities were measured 24 h after transfection according to previously published procedures. TpMD409.B2 cells were also co-transfected with pCMV-HA-DP-1 D103–126 and c-myc-luciferase as previously described.
The amino acid sequence of RB-1 based on the parasite sequence ([…]) was synthesized. Cysteine in wild type RB1 was replaced by an Asparagine (N; in bold […]). The penetrating peptide to facilitate cell entry is underlined. […]

[2] = test system: E2F activity in T. annulata-infected B cells; assay: E2F-luc reporter assay, T. annulata-infected B cells (TBL20); conditions: T. annulata-infected B cells, E2F-luc, 1 μM penetrating peptide, 2 hrs
Description: as §1
(§3) (a) TpMD409B.2 cells were transfected with E2F-luc (WT = wild-type E2F binding construct), or mutated E2F-luc constructs (labeled ‘mutated’) together with a CMV-lacZ plasmid to normalize for transfection efficiency. Luciferase and β-galactosidase activities were measured 24 hrs after transfection. E2F-luc relative luciferase activity normalized to mE2F-luc. Shown is the average of 3 independent experiments with standard deviation. BL20 or TBL20 cells were treated with (b) 1μM of penetrating peptides ([…]-K(FITC)) containing the TpGcpE LXCXE motif, or an LXNXE control ([…]-K(FITC)) or (c) E2F inhibitor or DMSO control, and then counted by hemacytometer after the indicated timepoints. Shown is the average of 3 independent experiments with standard deviation. Then, either (d) virulent Ode T. annulata-transformed macrophages, or (e) BL20/TBL20 T. annulata-transformed cells were transfected with E2F-luc plasmid (or mutated E2F-luc as in (c)) and incubated for 24 hrs at 37 °C. Then, cells were treated with penetrating peptides as in (b) for 2 hrs and luciferase activity was quantified. […]
as §2, with “TpMD409.B2 cells were also co-transfected with pCMV-HA-DP-1 D103–126 and c-myc-luciferase as previously described.” left out

[3] = test system: E2F activity in T. annulata-infected macrophages; assay: E2F-luc reporter assay, T. annulata-transformed macrophages (Ode); conditions: 1 μM penetrating peptide, 2 hrs
Description: as §1
as §3, with “Shown is the average of 3 independent experiments with standard deviation. Then, either (d) virulent Ode T. annulata-transformed macrophages, or (e) BL20/TBL20 T. annulata-transformed cells were transfected with E2F-luc plasmid (or mutated E2F-luc as in (c)) and incubated for 24 hrs at 37 °C.” left out

BL20/TBL20 cells = conditions: penetrating peptides, 24 h and 48 h; data not shown
Description: Since the LXCXE peptide can induce E2F activity, we investigated whether it could, on its own, increase bovine leukocyte proliferation. To extend our observations to T. annulata-infected leukocytes, we incubated T. annulata-infected B cells with WT or mutated LXNXE peptides and counted cell numbers at 24 h and 48 h.
The amino acid sequence of RB-1 based on the parasite sequence ([…]) was synthesized. Cysteine in wild type RB1 was replaced by an Asparagine (N; in bold […]). The penetrating peptide to facilitate cell entry is underlined. 3 different concentrations of peptides were used for 2 h to determine the minimum effective concentration (1 μM) with minimum toxic effect, which was used to perform each experiment as indicated.

In the case of “VKKKKIKREIKIYIEEVFTPLVLKNKELK-K(FITC) [LXNXE peptide, penetrating peptide with mutated LXNXE motif, negative control]”, the E2F reporter activity [1] is reported as “did not show the same reporter activity as the LXCXE peptide”, the E2F reporter activity [2] is reported as “did not show the same reporter activity as the LXCXE peptide” and the E2F reporter activity [3] is reported as “did not show the same reporter activity as the LXCXE peptide”. The cell viability (BL20/TBL20 cells) was “no effect on cell viability”.
